Source: PMC4779142, “The fully synthetic MAG-Tn3 therapeutic vaccine containing the tetanus toxoid-derived TT830-844 universal epitope provides anti-tumor immunity” (Cancer Immunology, Immunotherapy : CII, 2016)

Tested on: CD4+ T cells from C3H/HeN lymph nodes
Format: cell-based, mouse
Settings: n = 5, sc 50 μg peptide with CFA, day 11, 50 μg/mL peptide in vitro

RNTDGSTDYGILQINSR [HEL, H-2k-restricted HEL45-61 peptide derived from hen egg lysozyme ([…])]
TNF-α, IL-2 and IFN-γ production by CD4+ T cells on in vitro stimulation with the peptide: able to produce TNF-α, IL-2 and IFN-γ
